This is an account of results in publication PMC6435658, “Investigation into the Molecular Mechanisms underlying the Anti-proliferative and Anti-tumorigenesis activities of Diosmetin against HCT-116 Human Colorectal Cancer” (Scientific Reports, 2019).

The test system of one experiment is HCT-116 cells. The experiment in a line: MTT cytotoxicity assay, HCT-116. The format is cell-based, human. To be noted: for IC50: Homo sapiens, MTT. As to the method: (§1) Cytotoxicity property of Dis against HCT-116 and CCD-841 cells were measured by MTT assay as described by Mossman[77]. Briefly, cells were treated with different concentration of Dis and 5-Fu (positive control) with serial dilution factor of 2 for 8 concentrations in 96 well-plate for different time points (24 h, 48 h and 72 h). Subsequently at the end of each time point 20 µl of MTT (5 mg/ml, Affymetrix,Cleveland, OH, USA) were added to each well followed by 4 h incubation. The solutions were aspirated after 4 h and 100 µl of DMSO were added to each well. Absorbance for each well was read at 570 nm as measured by using microplate reader (Tecan Infinite multimode, Männedorf, Switzerland). Cytotoxicity (cell death) was measured by using the following formula: Celldeath(%)=sampleOD−controlOD/controlOD100
(§2) This assay was performed in triplicates in three independent experiments. The cytotoxicity property of Dis was presented as IC50 value.

Another experiment has as its system HT-29 cells. Put plainly: MTT cytotoxicity assay, HT-29. The format is cell-based, human. As to conditions: for IC50: Homo sapiens, MTT. As to the method: [Worded in the source for another cell line; this cell line is reported under the same test.] as §1, §2
Another experiment relates to CCD-841 cells. Put plainly: MTT cytotoxicity assay, CCD-841 normal colon cells. The format is cell-based. As to conditions: Homo sapiens, CCD-841 non cancerous cells. The procedure: as §1, §2

In brackets after ≈: the same amount, converted by molar mass.

For the compound `O=c1[nH]cc(F)c(=O)[nH]1` [5-FU, 5-Fluorouracil, reference compound], the half-maximal inhibitory concentration (IC50) in the experiment on HCT-116 cells (HCT-116, 24 h) is 5.43 ± 0.48 µg/mL (≈ 41.7 µM); with HCT-116 cells (HCT-116, 48 h) it was 3.07 ± 0.34 µg/mL (≈ 23.6 µM); with HCT-116 cells (HCT-116, 72 h), 1.47 ± 0.4 µg/mL (≈ 11.3 µM); with HT-29 cells (HT-29, 24 h), 10.3 ± 2.7 µg/mL (≈ 79 µM); in the experiment with HT-29 cells (HT-29, 48 h) it was 10.5 ± 1.3 µg/mL (≈ 80.6 µM); in the experiment on HT-29 cells (HT-29, 72 h), 2.24 ± 0.53 µg/mL (≈ 17.2 µM). The results for the 50% inhibitory concentration (IC50) in the experiment on CCD-841 cells (24 h), with CCD-841 cells (48 h) and with CCD-841 cells (72 h) were 197 ± 14.7 µg/mL (≈ 1510 µM), 28.3 ± 0.67 µg/mL (≈ 218 µM) and 14.5 ± 0.68 µg/mL (≈ 111 µM), respectively. Besides, the “Selectivity Index (SI)” value with HCT-116 cells (IC50 CCD-841 / IC50 HCT-116, 24 h) is reported as 36.27; in the experiment with HCT-116 cells (IC50 CCD-841 / IC50 HCT-116, 48 h), 9.23; in the experiment with HCT-116 cells (IC50 CCD-841 / IC50 HCT-116, 72 h), 9.85; with HT-29 cells (IC50 CCD-841 / IC50 HT-29, 24 h) it was 19.15; with HT-29 cells (IC50 CCD-841 / IC50 HT-29, 48 h) it was 2.7; with HT-29 cells (IC50 CCD-841 / IC50 HT-29, 72 h), 6.46.
